Measured values from paper PMC11494505, “Asymmetric Monoreduction of α,β-Dicarbonyls to α-Hydroxy Carbonyls by Ene Reductases” (ACS Catalysis, 2024).

Key:
GluER [1] = target: T1, GluER (Gluconobacter oxydans, UniProt Q5FTL6); test: bioconversion to 2-hydroxyhexan-3-one, chiral GC; format: biochemical; conditions: 10 mM substrate, 5 μM enzyme, 1.1 eq. NADPH, 2% DMSO, pH 7.0, 30 °C, 6 h
T1 construct: gene GOX0502; wild type, N-terminal His-tag (pET-28a(+)), E. coli BL21 Gold(DE3), IMAC, FMN-loaded

OYE2 [2] = target: T2, OYE2 (Saccharomyces cerevisiae, UniProt Q03558); test: bioconversion to 7b, HPLC; format: biochemical; conditions: 10 mM substrate, 5 μM enzyme, 11 mM NADPH, 2% DMSO, pH 7.0, 30 °C, 6 h
T2 construct: wild type, N-terminal His-tag (pET-28a(+)), E. coli BL21 Gold(DE3), IMAC, FMN-loaded

TOYE = target: T3, TOYE (Thermoanaerobacter pseudethanolicus, UniProt B0KAH1); test: bioconversion to 7b, HPLC; format: biochemical; conditions: 10 mM substrate, 5 μM enzyme, 11 mM NADPH, 2% DMSO, pH 7.0, 30 °C, 6 h
T3 construct: gene Teth39_0012; recombinant in-house enzyme; details in supplement

GluER [3] = target: T1, GluER; test: bioconversion to 7b and 7c, HPLC / GC; format: biochemical; conditions: 10 mM substrate, 5 μM enzyme, 1.1 eq. NADPH, 2% DMSO, pH 7.0, 30 °C, 6 h
YqjM = target: T4, YqjM (Bacillus subtilis, UniProt P54550); test: bioconversion to 7b, HPLC; format: biochemical; conditions: 10 mM substrate, 5 μM enzyme, 11 mM NADPH, 2% DMSO, pH 7.0, 30 °C, 6 h
T4 construct: gene namA; recombinant, purified; details in supplement

EPB1 = target: T5, EPB1 (Candida albicans, UniProt A0A1D8PPK1); test: bioconversion to 7b, HPLC; format: biochemical; conditions: 10 mM substrate, 5 μM enzyme, 11 mM NADPH, 2% DMSO, pH 7.0, 30 °C, 6 h
T5 construct: gene EBP1; wild type, N-terminal His-tag (pET-28a(+)), E. coli BL21 Gold(DE3); spelled EBP1 in Methods

XenA = target: T6, XenA (Pseudomonas putida, UniProt Q9R9V9); test: bioconversion to 7b, HPLC; format: biochemical; conditions: 10 mM substrate, 5 μM enzyme, 11 mM NADPH, 2% DMSO, pH 7.0, 30 °C, 6 h
T6 construct: recombinant in-house enzyme; details in supplement

PETNR = target: T7, PETNR (Enterobacter cloacae, UniProt P71278); test: bioconversion to 7b, HPLC; format: biochemical; conditions: 10 mM substrate, 5 μM enzyme, 11 mM NADPH, 2% DMSO, pH 7.0, 30 °C, 6 h
T7 construct: gene onr; recombinant in-house enzyme; details in supplement

TsOYE = target: T8, TsOYE (Thermus scotoductus, UniProt B0JDW3); test: bioconversion to 7b, HPLC; format: biochemical; conditions: 10 mM substrate, 5 μM enzyme, 11 mM NADPH, 2% DMSO, pH 7.0, 30 °C, 6 h
T8 construct: gene chrR; wild type, pET-28a(+), E. coli BL21 Gold(DE3), N-terminal His-tag, heat purified (70 °C)

OYE2 [4] = target: T2, OYE2; test: bioconversion, GC; format: biochemical; conditions: 10 mM substrate, 5 μM enzyme, 11 mM NADPH, 2% DMSO, pH 7.0, 30 °C, 6 h; product detected as 8c by GC
CC(=O)C(=O)c1ccccc1 = tested on: T9, CC(=O)C(=O)c1ccccc1; test: steady-state Michaelis-Menten kinetics; format: biochemical, Saccharomyces cerevisiae; conditions: NADPH as cofactor
T9 construct: wild type, N-terminal His-tag (pET-28a(+)), E. coli BL21 Gold(DE3), IMAC, FMN-loaded

T1 sequence (Q5FTL6 entry or part of it): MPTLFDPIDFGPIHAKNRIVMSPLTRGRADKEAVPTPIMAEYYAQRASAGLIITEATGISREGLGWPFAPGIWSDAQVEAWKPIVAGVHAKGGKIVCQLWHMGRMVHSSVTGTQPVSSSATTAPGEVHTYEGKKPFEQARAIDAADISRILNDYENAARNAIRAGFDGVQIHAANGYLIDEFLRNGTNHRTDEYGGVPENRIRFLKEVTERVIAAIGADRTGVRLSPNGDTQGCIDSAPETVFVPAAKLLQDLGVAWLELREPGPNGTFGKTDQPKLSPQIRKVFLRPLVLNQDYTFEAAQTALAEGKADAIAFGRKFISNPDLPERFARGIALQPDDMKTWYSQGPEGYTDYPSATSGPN
T2 sequence (Q03558 whole entry): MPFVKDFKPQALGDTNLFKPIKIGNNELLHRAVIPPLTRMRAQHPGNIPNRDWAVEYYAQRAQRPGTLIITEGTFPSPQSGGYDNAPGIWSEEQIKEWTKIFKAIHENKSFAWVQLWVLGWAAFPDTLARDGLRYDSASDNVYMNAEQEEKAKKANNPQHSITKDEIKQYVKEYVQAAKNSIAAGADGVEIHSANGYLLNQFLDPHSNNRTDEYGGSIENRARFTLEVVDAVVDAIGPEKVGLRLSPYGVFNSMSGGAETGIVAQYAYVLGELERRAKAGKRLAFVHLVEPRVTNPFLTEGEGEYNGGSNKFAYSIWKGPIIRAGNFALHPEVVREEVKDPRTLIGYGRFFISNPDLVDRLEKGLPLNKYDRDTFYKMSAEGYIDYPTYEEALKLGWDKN
T3 sequence (B0KAH1 entry or part of it): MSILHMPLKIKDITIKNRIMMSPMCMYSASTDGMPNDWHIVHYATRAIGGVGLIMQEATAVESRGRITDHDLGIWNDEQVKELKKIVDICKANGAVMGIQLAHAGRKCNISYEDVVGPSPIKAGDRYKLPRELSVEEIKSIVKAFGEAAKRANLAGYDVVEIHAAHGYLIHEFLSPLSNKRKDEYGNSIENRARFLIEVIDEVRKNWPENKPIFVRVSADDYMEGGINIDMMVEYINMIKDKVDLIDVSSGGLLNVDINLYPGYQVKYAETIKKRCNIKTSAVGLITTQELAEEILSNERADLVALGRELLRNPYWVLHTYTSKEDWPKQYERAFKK
T4 sequence (P54550 2-338): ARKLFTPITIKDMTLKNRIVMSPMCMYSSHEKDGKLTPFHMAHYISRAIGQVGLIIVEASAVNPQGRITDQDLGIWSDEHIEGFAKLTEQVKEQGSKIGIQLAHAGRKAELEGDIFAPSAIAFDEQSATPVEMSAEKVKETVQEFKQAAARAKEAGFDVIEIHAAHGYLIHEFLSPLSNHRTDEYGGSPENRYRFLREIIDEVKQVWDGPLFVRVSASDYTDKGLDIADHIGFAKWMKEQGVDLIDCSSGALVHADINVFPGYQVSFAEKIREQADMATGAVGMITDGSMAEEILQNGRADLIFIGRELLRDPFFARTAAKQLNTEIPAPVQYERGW
T5 sequence (A0A1D8PPK1 whole entry): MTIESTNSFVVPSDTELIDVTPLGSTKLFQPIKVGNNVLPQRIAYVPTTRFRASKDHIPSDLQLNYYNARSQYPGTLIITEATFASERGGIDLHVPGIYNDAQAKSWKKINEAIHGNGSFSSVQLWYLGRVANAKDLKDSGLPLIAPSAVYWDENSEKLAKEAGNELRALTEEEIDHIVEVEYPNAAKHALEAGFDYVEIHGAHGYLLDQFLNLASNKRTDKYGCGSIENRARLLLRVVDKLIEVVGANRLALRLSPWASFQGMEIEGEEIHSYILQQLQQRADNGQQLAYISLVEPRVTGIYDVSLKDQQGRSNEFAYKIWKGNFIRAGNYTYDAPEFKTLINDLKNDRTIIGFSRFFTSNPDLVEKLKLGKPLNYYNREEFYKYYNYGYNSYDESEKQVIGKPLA
T6 sequence (Q9R9V9 entry or part of it): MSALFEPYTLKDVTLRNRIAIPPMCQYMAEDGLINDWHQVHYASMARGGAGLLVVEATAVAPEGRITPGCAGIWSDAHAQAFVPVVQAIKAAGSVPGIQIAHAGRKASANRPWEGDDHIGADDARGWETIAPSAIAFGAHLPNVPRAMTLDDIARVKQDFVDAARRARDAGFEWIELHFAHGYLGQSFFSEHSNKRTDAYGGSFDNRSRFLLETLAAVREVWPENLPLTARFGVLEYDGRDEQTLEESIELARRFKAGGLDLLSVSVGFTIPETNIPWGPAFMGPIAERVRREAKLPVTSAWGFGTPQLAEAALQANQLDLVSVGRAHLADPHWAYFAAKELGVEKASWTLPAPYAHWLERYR
T7 sequence (P71278 entry or part of it): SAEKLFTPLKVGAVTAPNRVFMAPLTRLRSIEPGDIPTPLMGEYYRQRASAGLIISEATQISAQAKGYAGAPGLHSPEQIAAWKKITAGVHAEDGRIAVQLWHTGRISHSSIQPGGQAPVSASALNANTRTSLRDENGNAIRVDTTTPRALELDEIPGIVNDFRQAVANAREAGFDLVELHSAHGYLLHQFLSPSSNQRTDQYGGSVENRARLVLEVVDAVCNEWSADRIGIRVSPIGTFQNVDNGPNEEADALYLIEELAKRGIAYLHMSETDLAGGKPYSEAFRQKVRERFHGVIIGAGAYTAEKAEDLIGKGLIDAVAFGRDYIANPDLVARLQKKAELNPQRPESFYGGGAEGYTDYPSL

CCCC(=O)C(C)=O [2a, 2,3-hexanedione]
% conversion (GluER [1]): 19%

CC(=O)C(=O)c1ccccc1 [7a, 1-phenyl-1,2-propanedione]
bioconversion to 7b, HPLC (OYE2 [2]): Nine of the enzymes produced the single product 7b | bioconversion to 7b, HPLC (TOYE): class III (TsOYE, XenA, TOYE, YqjM) | bioconversion to 7b and 7c, HPLC / GC (GluER [3]): GluER was the most versatile ERED, able to reduce 1a–5a, 7a, and 8a | bioconversion to 7b, HPLC (YqjM): class III (TsOYE, XenA, TOYE, YqjM) | bioconversion to 7b, HPLC (EPB1): class II (OYE3, OYE2, EPB1) | bioconversion to 7b, HPLC (XenA): class III (TsOYE, XenA, TOYE, YqjM) | bioconversion to 7b, HPLC (PETNR): Nine of the enzymes produced the single product 7b; class I (PETNR, NCR) | bioconversion to 7b, HPLC (TsOYE): class III (TsOYE, XenA, TOYE, YqjM)

O=CC(=O)c1ccccc1 [8a, phenylglyoxal]
bioconversion, GC (OYE2 [4]): could confirm excellent conversions with 8a

OYE3 (Saccharomyces cerevisiae S288C)
Km (CC(=O)C(=O)c1ccccc1): 2460 ± 250 µM | kcat (CC(=O)C(=O)c1ccccc1): 0.71 ± 0.03 s⁻¹
